Measurements reported in paper PMC11659602, “Discovering covalent cyclic peptide inhibitors of peptidyl arginine deiminase 4 (PADI4) using mRNA-display with a genetically encoded electrophilic warhead” (Communications Chemistry, 2024).
Where “and” joins values, the source holds several entries; their conditions need not be identical. Equal entries are not always repeated. Where two headings read alike, the source gives them in different places. Where a SMILES comes first, the peptide text is derived from it. Bridges are numbered along the chain shown (N, C = ends). [ ]: non-standard residue; d: D form. Orn(fluoroacetimidoyl) = N=C(CF)NCCC[C@H](N)C(=O)O

What was measured:
PADI4 [1] = biological target: T1, PADI4 (Homo sapiens, UniProt Q9UM07); experiment: Incubation time-dependent COLDER assay IC50(t), Krippendorff fit; assay type: biochemical; details: for Ki / kinact: Krippendorff fit of IC50 vs time
T1 construct: His6; made in house
T1 sequence (Q9UM07 whole entry): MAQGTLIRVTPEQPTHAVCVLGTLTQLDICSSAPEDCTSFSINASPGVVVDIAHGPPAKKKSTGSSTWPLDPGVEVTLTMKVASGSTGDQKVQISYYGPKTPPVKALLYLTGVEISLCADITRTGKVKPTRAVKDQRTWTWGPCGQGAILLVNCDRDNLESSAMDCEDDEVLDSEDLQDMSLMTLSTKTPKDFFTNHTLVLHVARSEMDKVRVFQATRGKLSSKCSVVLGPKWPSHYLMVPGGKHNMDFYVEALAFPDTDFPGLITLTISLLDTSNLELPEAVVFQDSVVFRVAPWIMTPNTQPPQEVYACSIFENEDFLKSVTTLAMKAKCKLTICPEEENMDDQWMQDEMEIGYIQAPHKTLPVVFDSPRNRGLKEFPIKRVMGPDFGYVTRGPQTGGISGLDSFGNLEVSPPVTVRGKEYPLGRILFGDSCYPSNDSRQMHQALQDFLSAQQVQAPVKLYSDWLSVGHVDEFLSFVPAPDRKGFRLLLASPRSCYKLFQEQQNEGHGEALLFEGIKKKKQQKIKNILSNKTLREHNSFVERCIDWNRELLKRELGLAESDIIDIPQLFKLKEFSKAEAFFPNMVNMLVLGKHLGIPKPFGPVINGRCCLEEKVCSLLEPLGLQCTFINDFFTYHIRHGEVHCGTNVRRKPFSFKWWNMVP
Procedure: To determine KI and kinact of covalent peptide inhibitors, COLDER assays were used[52]. Peptide dilutions were prepared using 5-fold dilutions from 500 µM and 300 µM to 0.8 µM and 2.4 µM, respectively, at 1% DMSO in COLDER buffer (50 mM HEPES, 150 mM NaCl and 2 mM DTT, pH 7.5). The 9 peptide dilutions were added to a 96-well plate, alongside a 1% DMSO control. An equal volume of 10 mM BAEE was added to each well and the solution was homogenised by pipette mixing. This was mixed with 50 nM His-PADI4, 0.6 mg/mL BSA and 10 mM CaCl2, in COLDER buffer, to bring the final volume to 300 µL in each well. Alternatively, His-PAD1 (100 nM) /His-PADI2 (100 nM) /His-PADI3 (250 nM) were used. For assays with PADI1 and PADI3, 10 mM N^α-benzoyl-L-arginine methyl […] (BAME) was used as the substrate instead of BAEE[48],[58],[59]. At 15-minute intervals, for 5 timepoints, 50 µL of solution was taken from each well and quenched with 10 µL EDTA (300 mM). 200 µL of COLDER solution containing 20 mM diacetyl monoxime/2,3-butanedione monoxime (Merck), 0.5 mM thiosemicarbazide (Acros Organics), 2.25 M H3PO4, 4.5 M H2SO4 and 1.5 mM NH4Fe(SO4)2.12H2O was added to each well. Samples were incubated for 20 min at 95 °C before measuring absorbance at 540 nm on a CLARIOstar Plus (BMG LABTECH). IC50 values for each time point were determined using non-linear regression with GraphPad Prism. Incubation time–dependent potency IC50(t) against incubation time was fitted to the Krippendorff equation (below) to determine KI and kinact using a Python script[53],[59]. […] IC50t=KI1+S/KM⋅2−2e^−ηIC50⋅kinact⋅t/ηIC50⋅kinact⋅t−1 WhereηIC50=IC50t/KI1+S/KM+IC50t

PADI4 [2] = biological target: T1, PADI4; experiment: Surface plasmon resonance (SPR), single cycle kinetics; assay type: binding; details: for Ki: k-1/k+1
Procedure, shortened: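 Biotinylated His-PADI4 captured on CAP chip (~3000 RU); peptides as 5-point 3-fold series in HEPES, 150 mM NaCl, 10 mM CaCl2, 0.1% DMSO, pH 7.5, triplicate. Warhead peptides fitted two-state (k-2 = 0; Ki = k-1/k+1, kinact = k+2); others 1:1.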

PADI4 [3] = biological target: T1, PADI4; experiment: COLDER inhibition assay, BAEE substrate, with or without 1 h preincubation; assay type: biochemical; details: for IC50: COLDER; for remaining activity at 0.003 µM: peptide 0.003 µM; for remaining activity at 0.01 µM: peptide 0.01 µM; for remaining activity at 0.03 µM: peptide 0.03 µM; for remaining activity at 0.1 µM: peptide 0.1 µM; for remaining activity at 0.3 µM: peptide 0.3 µM; for remaining activity at 1 µM: peptide 1 µM; for remaining activity at 3 µM: peptide 3 µM
Procedure, shortened: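 50 nM His-PADI4 with peptide (final 0.1× the 0.03-500 µM series), 0.6 mg/mL BSA, 10 mM CaCl2 in 50 mM HEPES, 150 mM NaCl, 2 mM DTT, pH 7.5, with or without 1 h preincubation before 10 mM BAEE. After 30 min at rt, EDTA-quenched; citrulline read colorimetrically at 540 nm; mean ± SEM, ≥2 replicates.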

[4] = 15 mins, replicates, read-out: apparent IC50
[5] = 30 mins, replicates, read-out: apparent IC50
[6] = 45 mins, replicates, read-out: apparent IC50
[7] = 60 mins, replicates, read-out: apparent IC50
[8] = 75 mins, replicates, read-out: apparent IC50
[9] = each replicate, read-out: k2 / kinact
[10] = two-state reaction model, k+2, read-out: SPR kinact (converted)
[11] = 1 h preincubation of peptide and PADI4, 10 mM CaCl2, read-out: IC50 Values 1 h preincubation
[12] = no preincubation of peptide and PADI4, 10 mM CaCl2, read-out: IC50 Values 0 h preincubation
[13] = T=0, values starred, read-out: PADI4 activity normalised to 0.1% DMSO
[14] = T=1, read-out: PADI4 activity normalised to 0.1% DMSO
[15] = T=0, read-out: PADI4 activity normalised to 0.1% DMSO

kinact/KI (PADI4 [1]) [M⁻¹ s⁻¹]	IC50 (PADI4 [1]; [4])	IC50 (PADI4 [1]; [5])	IC50 (PADI4 [1]; [6])	IC50 (PADI4 [1]; [7])	IC50 (PADI4 [1]; [8])	Ki (PADI4 [1]) [nM]	kinact (PADI4 [1]) [s⁻¹]	kinact/KI (PADI4 [2]) [M⁻¹ s⁻¹]	k2 / kinact (PADI4 [2]; each replicate) [s⁻¹]	kinact (PADI4 [2]; [9]) [s⁻¹]	kinact (PADI4 [2]; [10]) [s⁻¹]	Ki (PADI4 [2]; two-state reaction model) [nM]	IC50 (PADI4 [3]; [11]) [nM]	IC50 (PADI4 [3]; [12]) [nM]	remaining activity at 0.003 µM (PADI4 [3]; [13]) [%]	remaining activity at 0.003 µM (PADI4 [3]; [14]) [%]	remaining activity at 0.01 µM (PADI4 [3]; [13]) [%]	remaining activity at 0.01 µM (PADI4 [3]; [14]) [%]	remaining activity at 0.03 µM (PADI4 [3]; [15]) [%]	SMILES	further results
1230	8810 nM and 8730 nM and 8280 nM	4670 nM and 4780 nM and 4310 nM	3420 nM and 4190 nM and 3180 nM	3080 nM and 3100 nM and 2670 nM	2720 nM and 2530 nM and 2470 nM	1900 ± 100	0.00217	15200	0.0019	0.0017	0.00183	120 ± 10	70 ± 4	4400 ± 70	97.2	84.1	92.4	86.9	93.5	N=C(N)NCCC[C@@H]1NC(=O)[C@H](CCCNC(=N)CF)NC(=O)[C@H](CC(=O)O)NC(=O)[C@H](Cc2ccc(O)cc2)NC(=O)[C@H](CCCCN)NC(=O)[C@H](CO)NC(=O)[C@@H](Cc2ccc(O)cc2)NC(=O)CSC[C@@H](C(=O)NCC(N)=O)NC(=O)[C@H](CC(=O)O)NC(=O)[C@H](CCCNC(=N)N)NC(=O)[C@@H]2CCCN2C(=O)[C@H](CO)NC1=O [cP4_4, ySKYD(2)RSPRDCG] ({CH2CO}-[dY]SKYD[Orn(fluoroacetimidoyl)]RSPRDCG-NH2; thioether N-12)	PADI4 activity, normalised (Figure S11c) (PADI4 [1]; cP4_4 0.08 µM): 98.2718 and 96.1223 and 99.8314; PADI4 activity, normalised (Figure S11c) (PADI4 [1]; cP4_4 0.24 µM): 93.4756 and 94.2113; PADI4 activity, normalised (Figure S11c) (PADI4 [1]; cP4_4 0.4 µM): 100.554 and 87.7482; PADI4 activity, normalised (Figure S11c) (PADI4 [1]; cP4_4 1.2 µM): 75.0589 and 75.4411 and 70.326; PADI4 activity, normalised (Figure S11c) (PADI4 [1]; cP4_4 2 µM): 67.2548 and 61.3338; PADI4 activity, normalised (Figure S11c) (PADI4 [1]; cP4_4 6 µM): 29.9549 and 26.3769; PADI4 activity, normalised (Figure S11c) (PADI4 [1]; cP4_4 10 µM): 22.5225 and 20.5991 and 19.0146; PADI4 activity, normalised (Figure S11c) (PADI4 [1]; cP4_4 30 µM): 7.3132 and 8.5351 and 5.9198; PADI4 activity, normalised (Figure S11c) (PADI4 [1]; cP4_4 50 µM): 3.0999 and 5.4575 and 3.9528; remaining activity at 0.03 µM (PADI4 [3]; [14]): 73.7%; remaining activity at 0.1 µM (PADI4 [3]; [15]): 90.5%; remaining activity at 0.1 µM (PADI4 [3]; [14]): 29.1%; remaining activity at 0.3 µM (PADI4 [3]; [15]): 87.5%; remaining activity at 1 µM (PADI4 [3]; [15]): 76.3%; remaining activity at 3 µM (PADI4 [3]; [15]): 53.9%; remaining activity at 10 µM (PADI4 [3]; peptide 10 µM, T=0, read-out: PADI4 activity normalised to 0.1% DMSO): 20.8%; remaining activity at 30 µM (PADI4 [3]; peptide 30 µM, T=0, read-out: PADI4 activity normalised to 0.1% DMSO): 8.03%
3550	4150 nM and 3690 nM and 2680 nM	1490 nM and 1390 nM and 1520 nM	996 nM and 1150 nM and 1210 nM	809 nM and 775 nM and 965 nM	752 nM and 784 nM and 780 nM	780 ± 60	0.00283	26600	0.0051	0.0028	0.00417	160 ± 30	52 ± 2	1600 ± 30	95.7	87.4	92.2	88.3	95.8	CC(C)C[C@@H]1NC(=O)[C@H](CCCCN)NC(=O)[C@H](CO)NC(=O)[C@H](CO)NC(=O)[C@H](Cc2ccc(O)cc2)NC(=O)[C@H](Cc2c[nH]cn2)NC(=O)[C@H](CCCNC(=N)CF)NC(=O)[C@H](CC(=O)O)NC(=O)[C@H](CC(C)C)NC(=O)[C@@H](Cc2ccc(O)cc2)NC(=O)CSC[C@@H](C(=O)NCC(N)=O)NC(=O)[C@H](Cc2ccc(O)cc2)NC1=O [cP4_15, yLD(2)HYSSKLYCG] ({CH2CO}-[dY]LD[Orn(fluoroacetimidoyl)]HYSSKLYCG-NH2; thioether N-12)	IC50 (PADI4 [1]; 60-minute time point, no preincubation, read-out: PADI4 IC50): 850 nM; remaining activity at 0.048 µM (PADI4 [1]; 1 h, 0.048 µM, quenched after 60 mins, read-out: PADI4 activity normalised to 0.1% DMSO): 98.8%; remaining activity at 0.08 µM (PADI4 [1]; 1 h, 0.08 µM, quenched after 60 mins, read-out: PADI4 activity normalised to 0.1% DMSO): 93.4%; remaining activity at 0.24 µM (PADI4 [1]; 1 h, 0.24 µM, quenched after 60 mins, read-out: PADI4 activity normalised to 0.1% DMSO): 87.8%; remaining activity at 0.4 µM (PADI4 [1]; 1 h, 0.4 µM, quenched after 60 mins, read-out: PADI4 activity normalised to 0.1% DMSO): 76.7%; remaining activity at 1.2 µM (PADI4 [1]; 1 h, 1.2 µM, quenched after 60 mins, read-out: PADI4 activity normalised to 0.1% DMSO): 35.6%; remaining activity at 2 µM (PADI4 [1]; 1 h, 2 µM, quenched after 60 mins, read-out: PADI4 activity normalised to 0.1% DMSO): 23.1%; remaining activity at 6 µM (PADI4 [1]; 1 h, 6 µM, quenched after 60 mins, read-out: PADI4 activity normalised to 0.1% DMSO): 12.5%; remaining activity at 10 µM (PADI4 [1]; 1 h, 10 µM, quenched after 60 mins, read-out: PADI4 activity normalised to 0.1% DMSO): 7.1%; remaining activity at 0.03 µM (PADI4 [3]; [14]): 81.5%; remaining activity at 0.1 µM (PADI4 [3]; [15]): 88.7%; remaining activity at 0.3 µM (PADI4 [3]; [15]): 82.7%; remaining activity at 1 µM (PADI4 [3]; [15]): 61.2%; remaining activity at 3 µM (PADI4 [3]; [15]): 32.3%
